Data from BindingDB's records for doi:10.1016/s0960-894x(03)00330-5 (The University of Georgia, 2003).

Columns and labels:
[1] = In vitro antiviral activity against HIV-1 Reverse transcriptase wild type
[2] = In vitro antiviral activity against HIV-1 Reverse transcriptase M184V mutant

## Cc1cn([C@H]2C=C[C@@H](CO)O2)c(=O)[nH]c1=O [2',3'-didehydro-3'-deoxythymidine]
[1]
  EC50: 450 nM
[2]
  EC50: 500 nM

## Nc1nc(=O)n([C@@H]2C=C[C@H](CO)O2)cc1F [ACH-126443]
[1]
  EC50: 180 nM
[2]
  EC50: 140 nM

## Nc1ccn([C@@H]2CS[C@H](CO)O2)c(=O)n1 [Epivir]
[1]
  EC50: 42 nM
[2]
  EC50: > 50000 nM
